SMILES strings stand for the structures. Bounds are passed on as bounds.

One experiment has as its system 80S14 (p21-deficient) cells. The experiment can be described thus: Cytotoxicity assay using isogenic cell lines: IC50 in 80S14 (p21-deficient) cells, SRB. The format is cell-based, human. The note with it: 80S14 p21-deficient cells, 5 days incubation, SRB; read-out: IC50 for 80SI4. In short, it runs like this: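 IC50 is the concentration halving proliferation relative to untreated controls, read from SRB absorbance (560 nm) after TCA fixation. Test agent dilutions (5 pM–50 μM or 170 pg/ml–10 μg/ml) were left on p21-deficient 80S14 cells (12,000/well, pre-incubated overnight) for 5 days at 37 °C.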
With `CC(C)(C)C(=O)NCC(=O)Nc1cccc(-c2ccnc3c(C(=O)c4cccs4)cnn23)c1` [Example 132], the IC50 lay within 1 to 10 µM.

Take `O=C(CNC(=O)C12CC3CC(CC(C3)C1)C2)Nc1cccc(-c2ccnc3c(C(=O)c4cccs4)cnn23)c1` [Example 134, N-[2-oxo-2-({3-[3-(thien-2-ylcarbonyl)pyrazolo[1,5-a]pyrimidin-7-yl]phenyl}amino)ethyl]adamantine-1-carboxamide]: the IC50 was in the range of 1 to 10 µM.

On to `CCCCCNC(=O)NCC(=O)Nc1cccc(-c2ccnc3c(C(=O)c4cccs4)cnn23)c1` [Example 136, N-2-[(pentylamino)carbonyl]-N-1-{3-[3-(thien-2-ylcarbonyl)pyrazolo[1,5-a]pyrimidin-7-yl]phenyl}gylcinamide], for which the IC50 lay in the range of 10 to 50 µM.

As for `CCNC(=O)NCC(=O)Nc1cccc(-c2ccnc3c(C(=O)c4cccs4)cnn23)c1` [Example 137, N-2-[(ethylamino)carbonyl]-N-1-{3-[3-(thien-2-ylcarbonyl)pyrazolo[1,5-a]pyrimidin-7-yl]phenyl}glycinamide], the IC50 was 1 to 10 µM.

Turning to `O=C(CNC(=O)NC1CCCCC1)Nc1cccc(-c2ccnc3c(C(=O)c4cccs4)cnn23)c1` [Example 138, N-2-[(cyclohexylamino)carbonyl]-N1-{3-[3-(thien-2-ylcarbonyl)pyrazolo[1,5-a]pyrimidin-7-yl]phenyl}glycinamide], the IC50 fell in the range of 1 to 10 µM.

For the molecule `CCC(C)C(=O)Nc1cccc(-c2ccnc3c(C(=O)c4cccs4)cnn23)c1` (centres unmarked) [Example 145], the IC50 is less than 1 µM.

As to `C/C=C/C(=O)Nc1cccc(-c2ccnc3c(C(=O)c4cccs4)cnn23)c1` [Example 149, (2E)-N-{3-[3-(thien-2-ylcarbonvl)pyrazolo[1,5-a]pyrimidin-7-yl]phenyl}but-2-enamide], the IC50 was in the range of 1 to 10 µM.

On to `CCCCCC(=O)Nc1cccc(-c2ccnc3c(C(=O)c4cccs4)cnn23)c1` [Example 153], for which the IC50 is less than 1 µM.

In the case of `CN(C)CCNC(=O)Nc1cccc(-c2ccnc3c(C(=O)c4cccs4)cnn23)c1` [Example 161, N-[2-(dimethylamino)ethyl]-N′-{3-[3-(thien-2-ylcarbonlyl)pyrazolo[1,5-a]pyrimidin-7-yl]phenyl}urea], the 50% inhibitory concentration (IC50) is 10 to 50 µM.

The experiment is the same for the next values; noted with them: Homo sapiens, 80S14, 120 h, read-out: IC50 for 80SI4 (uM).
In the case of `CCC(CC)C(=O)Nc1cccc(-c2ccnc3c(C(=O)c4cccs4)cnn23)c1` [Example 150, 2-ethyl-N-{3-[3-(thien-2-ylcarbonyl)pyrazolo[1,5-a]pyrimidin-7-yl]phenyl}butanamide], the IC50 is 1 to 10 µM.

`CCCC(C)C(=O)Nc1cccc(-c2ccnc3c(C(=O)c4cccs4)cnn23)c1` (centres unmarked) [Example 154, 2-methyl-N-{3-[3-(thien-2-ylcarbonyl)pyrazolo[1,5-a]pyrimidin-7-yl]phenyl}pentanamide]: the IC50 is less than 1 µM.

The same experiment, now with this note: Homo sapiens, 120 h; 80S14 p21-deficient cells, 5 days incubation, SRB; read-out: IC50 for 80SI4.
`CC(C)(C)COC(=O)NCC(=O)Nc1cccc(-c2ccnc3c(C(=O)c4cccs4)cnn23)c1` [Example 121, neopentyl 2-oxo-2-({3-[3-(thien-2-ylcarbonyl)pyrazolo[1,5-a]pyrimidin-7-yl]phenyl}amino)ethylcarbamate]: the IC50 was 1 to 10 µM.

For `CCCCCCOC(=O)NCC(=O)Nc1cccc(-c2ccnc3c(C(=O)c4cccs4)cnn23)c1` [Example 122, hexyl 2-oxo-2-({3-[3-(thien-2-ylcarbonyl)pyrazolo[1,5-a]pyrimidin-7-yl]phenyl}amino)ethylcarbamate], the IC50 fell in the range of 1 to 10 µM.

Regarding `C#CCOC(=O)NCC(=O)Nc1cccc(-c2ccnc3c(C(=O)c4cccs4)cnn23)c1` [Example 123, prop-2-ynyl 2-oxo-2-({3-[3-(thien-2-ylcarbonyl)pyrazolo[1,5-a]pyrimidin-7-yl]phenyl}amino)ethylcarbamate], the IC50 lay in the range of 1 to 10 µM.

Regarding `C=CCOC(=O)NCC(=O)Nc1cccc(-c2ccnc3c(C(=O)c4cccs4)cnn23)c1` [Example 124, allyl 2-oxo-2-({3-[3-(thien-2-ylcarbonyl)pyrazolo[1,5-a)pyrimidin-7-yl]phenyl}amino)ethylcarbamate], the IC50 fell in the range of 10 to 50 µM.

For the molecule `O=C(CNC(=O)OCc1ccccc1)Nc1cccc(-c2ccnc3c(C(=O)c4cccs4)cnn23)c1` [Example 125, benzyl 2-oxo-2-({3-[3-(thien-2-ylcarbonyl)pyrazolo[1,5-a]pyrimidin-7-yl]phenyl}amino)ethylcarbamate], the IC50 lay in the range of 1 to 10 µM.

For `O=C(CNC(=O)C1CC1)Nc1cccc(-c2ccnc3c(C(=O)c4cccs4)cnn23)c1` [Example 126, N-[2-oxo-2-({3-[3-(thien-2-ylcarbonyl)pyrazolo[1,5-a]pyrimidin-7-yl]phenyl}amino)ethyl]cyclopropanecarboxamide], the IC50 lay within 10 to 50 µM.

Take `O=C(CNC(=O)C1CCC1)Nc1cccc(-c2ccnc3c(C(=O)c4cccs4)cnn23)c1` [Example 127, N-[2-oxo-2-({3-[3-(thien-2-ylcarbonyl)pyrazolo[1,5-a]pyrimidin-7-yl]phenyl}amino)ethyl]cyclobutanecarboxamide]: the IC50 is 10 to 50 µM.

For the molecule `O=C(CNC(=O)C1CCCC1)Nc1cccc(-c2ccnc3c(C(=O)c4cccs4)cnn23)c1` [Example 128, N-[2-oxo-2-({3-[3-(thien-2-ylcarbonyl)pyrazolo[1,5-a]pyrimidin-7-yl]phenyl}amino)ethyl]cyclopentanecarboxamide], the IC50 was 1 to 10 µM.

Regarding `O=C(CNC(=O)C1CCCCC1)Nc1cccc(-c2ccnc3c(C(=O)c4cccs4)cnn23)c1` [Example 129, N-[2-oxo-2-({3-[3-(thien-2-ylcarbonyl)pyrazolo[1,5-a]pyrimidin-7-yl]phenyl}amino)ethyl]cyclohexanecarboxamide], the IC50 was 10 to 50 µM.

With `CCC(C)C(=O)NCC(=O)Nc1cccc(-c2ccnc3c(C(=O)c4cccs4)cnn23)c1` (centres unmarked) [Example 130, 2-methyl-N-[2-oxo-2-({3-[3-(thien-2-ylcarbonyl)pyrazolo[1,5-a]pyrimidin-7-yl]phenyl}amino)ethyl]butanamide], the IC50 is 10 to 50 µM.

Regarding `CCC(CC)C(=O)NCC(=O)Nc1cccc(-c2ccnc3c(C(=O)c4cccs4)cnn23)c1` [Example 131, 2-ethyl-N-[2-oxo-2-({3-[3-(thien-2-ylcarbonyl)pyrazolo[1,5-a]pyrimidin-7-yl]phenyl}amino)ethyl]butanamide], the IC50 lay within 10 to 50 µM.

As for `CC(C)CC(=O)NCC(=O)Nc1cccc(-c2ccnc3c(C(=O)c4cccs4)cnn23)c1` [Example 133, 3-methyl-N-[2-oxo-2-({3-[3-(thien-2-ylcarbonyl)pyrazolo[1,5-a]pyrimidin-7-yl]phenyl}amino)ethyl]butanamide], the IC50 lay within 1 to 10 µM.

For `O=C(CNC(=O)c1ccccc1)Nc1cccc(-c2ccnc3c(C(=O)c4cccs4)cnn23)c1` [Example 135, N-[2-oxo-2-({3-[3-(thien-2-ylcarbonyl)pyrazolo[1,5-a]pyrimidin-7-yl]phenyl]amino)ethyl]benzamide], the IC50 was 1 to 10 µM.

Take `O=C(CCCl)Nc1cccc(-c2ccnc3c(C(=O)c4cccs4)cnn23)c1` [Example 139, 3-chloro-N-{3-[3-(thien-2-ylcarbonyl)pyrazolo[1,5-a]pyrimidin-7-yl]phenyl}propanamide]: the IC50 was less than 1 µM.

For the molecule `CC(CC(=O)Nc1cccc(-c2ccnc3c(C(=O)c4cccs4)cnn23)c1)CC(C)(C)C` (centres unmarked) [Example 140, 3,5,5-trimethyl-N-{3-[3-(thien-2-ylcarbonyl)pyrazolo[1,5-a]pyrimidin-7-yl]phenyl}hexanamide], the IC50 is less than 1 µM.

As to `CC(CCl)(CCl)C(=O)Nc1cccc(-c2ccnc3c(C(=O)c4cccs4)cnn23)c1` [Example 141, 3-chloro-2-(chloromethyl)-2-methyl-N-{3-[3-(thien-2-ylcarbonyl)pyrazolo[1,5-a]pyrimidin7-yl]phenyl}propanamide], the IC50 was less than 1 µM.

For the molecule `CCCCCCCCCCC(=O)Nc1cccc(-c2ccnc3c(C(=O)c4cccs4)cnn23)c1` [Example 142, N-{3-[3-(thien-2-ylcarbonyl)pyrazolo[1,5-a]pyrimidin-7-yl]phenyl}undecanamide], the IC50 was 10 to 50 µM.

Regarding `CC1(C(=O)Nc2cccc(-c3ccnc4c(C(=O)c5cccs5)cnn34)c2)CCCCC1` [Example 143, 1-methyl-N-{3-[3-(thien-2-ylcarbonyl)pyrazolo[1,5-a]pyrimidin-7-yl]phenyl}cyclohexanecarboxamide], the IC50 was less than 1 µM.

As for `O=C(Nc1cccc(-c2ccnc3c(C(=O)c4cccs4)cnn23)c1)C(Cl)=C(Cl)Cl` [Example 144, 2,3,3-trichloro-N-{3-[3-(thien-2-ylcarbonyl)pyrazolo[1,5-a]pyrimidin-7-yl]phenyl}acrylamide], the IC50 was less than 1 µM.

Take `O=C(CCC1CCCC1)Nc1cccc(-c2ccnc3c(C(=O)c4cccs4)cnn23)c1` [Example 146, 3-cyclopentyl-N-{3-[3-(thien-2-ylcarbonyl)pyrazolo[1,5-a]pyrimidin-7-yl]phenyl}propanamide]: the IC50 fell in the range of 1 to 10 µM.

Regarding `CCCCC(CC)C(=O)Nc1cccc(-c2ccnc3c(C(=O)c4cccs4)cnn23)c1` (centres unmarked) [Example 147, 2-ethyl-N-{3-[3-(thien-2-ylcarbonyl)pyrazolo[1,5-a]pyrimidin-7-yl}phenyl}hexanamide], the 50% inhibitory concentration (IC50) lay within 1 to 10 µM.

In the case of `CCCCCCC(=O)Nc1cccc(-c2ccnc3c(C(=O)c4cccs4)cnn23)c1` [Example 151, N-{3-[3-(thien-2-ylcarbonyl)pyrazolo[1,5-a]pyrimidin-7-yl]phenyl}heptanamide], the IC50 was in the range of 1 to 10 µM.

For the molecule `CN1CCN(C(=O)Nc2cccc(-c3ccnc4c(C(=O)c5cccs5)cnn34)c2)CC1` [Example 166, 4-methyl-N-{3-[3-(thien-2-ylcarbonyl)pyrazolo[1,5-a]pyrimidin-7-yl]phenyl}piperazine-1-carboxamide], the IC50 is 1 to 10 µM.

Turning to `CN1CCCN(C(=O)Nc2cccc(-c3ccnc4c(C(=O)c5cccs5)cnn34)c2)CC1` [Example 167, 4-methyl-N-{3-[3-(thien-2-ylcarbonyl)pyrazolo[1,5-a]pyrimidin-7-yl]phenyl}-1,4-diazepane-1-carboxamide], the IC50 lay in the range of 1 to 10 µM.

Source of the values: patent US20060063784A1, “Method of using substituted pyrazolo [1,5-a] pyrimidines” (priority 2004, published 2006).
